Marks after values point to notes of the source that are not given here. Each block holds one molecule with its values, some of them ahead of it.
How the values were obtained:
[1] = pH of calcium carbonate slurry after sequential 50 mg/kg additions (Example 2); format: physicochemical; settings: for δ pH: change per 50 mg/kg aliquot
Text: The pH of the aqueous suspension may be measured using any conventional pH meter. For example, the pH of the aqueous suspension may be measured using the Digital pH meter “Mettler Toledo FE20”, which has been calibrated in accordance with the manufacturer's instructions, using buffer solutions with nominal values of 4, 7 and 9. This may be carried out using either a manual or automatic method, depending on the type of instrument being used.
(§1) The pH of the aqueous suspension may be measured by: • mixing a sample of the aqueous suspension to ensure homogeneity, by using either the bench stirrer or the rotating rollers, or by shaking the sample container and contents vigorously; • measuring the temperature of the sample and adjusting the temperature to 22° C.; • removing the pH electrode from its deionised water storage solution and immersing it carefully into the test slurry; • waiting until a stable pH reading is obtained; • recording the pH value of the undisturbed slurry. Viscosity
50 mg/kg aliquots of either AMP or DMEA were sequentially added to 250 g calcium carbonate slurry samples having 78 wt % solids and 60% of particles less than 2 μm in size (measured using a micrometrics sedigraph). In this context, 50 mg/kg means that 50 mg of AMP or DMEA was added per kg of dry inorganic particulate material in the aqueous suspension. The pH of the samples was measured after stirring immediately after each 50 mg/kg addition.

[2] = pH recovery of calcium carbonate slurry after lowering to pH 8 with CO2 enriched air (Example 1); format: physicochemical
Text: The pH of the aqueous suspension may be measured using any conventional pH meter. […] This may be carried out using either a manual or automatic method, depending on the type of instrument being used.
as §1
1 kg samples of a calcium carbonate slurry having 78 wt % solids and 60% of particles less than 2 μm in size (measured using a micrometrics sedigraph) were adjusted to […] at room temperature using 2-amino-2-methyl-1-propanol (AMP) or dimethylethanolamine (DMEA). The control sample was adjusted to pH 10 using dilute sodium hydroxide solution. The solids content of the samples was adjusted using deionised water.
The pH of each slurry was lowered to pH 8 by aspirating the sample with carbon dioxide (CO2) enriched air (2%) using a flow rate of 5 mL/min. When pH 8 had been reached, aspiration of the sample was stopped.
Recovery of the sample pH was then monitored and recorded over subsequent days using the Mettler Toledo FE20 pH meter as described above in the detailed description.

[3] = tested on: microbes in contaminated calcium carbonate slurry; assay: Total viable count of contaminated calcium carbonate slurry (Examples 3-5); format: cell-based, bacteria; settings: for level of microbes compared with samples comprising no DMEA: 400, 500 and 600 ppm DMEA alone
Procedure: The microbe level, for example the total viable count, of the aqueous suspension may be measured using growth medium such as Petrifilm or dipslides. The material under test (for example the aqueous suspension of inorganic particulate material) is diluted with a buffer solution and a measured amount of the dilution is placed on a growth medium (for example, Petrifilm). This is incubated for 48 hours, after which time the number of colonies of bacteria is counted. Each colony has developed from one single bacterium or colony forming unit (cfu). Therefore, the number of colonies, multiplied by the dilution factor, is equivalent to the number of original colony forming units per gram or millilitre of slurry.
For example, the total viable count of an aqueous suspension may be measured by: • mixing a sample of aqueous suspension of inorganic particulate material thoroughly by shaking its container vigorously; • measuring the required weight or volume of the sample. For example, if the results are to be recorded as colony forming units per g (cfu/g), a container containing the buffer solution is placed on the balance and the balance is set to zero. Approximately 1 g of slurry is weighed into the container and its weight is recorded to within 0.1 g. The contents of the container are mixed by shaking it vigorously. If the results are to be recorded as colony forming units per ml (cfu/ml), 1 ml of slurry may be added to a container containing the buffer solution. The contents of the container are mixed by shaking it vigorously; • distributing the diluted sample evenly on the growth medium. The plate may be left undisturbed for at least one minute to allow the gel to solidify; • incubating the contents of the growth medium (for example Petrifilm plates) for 48 hours±2 hours at 30° C.±2° C.; • counting the number of colonies on the growth medium (for example Petrifilm); • calculating the total viable count of the sample by multiplying the number of colonies on the growth medium (for example Petrifilm) by the dilution factor and dividing this by the weight or volume of the sample which was plated on the growth medium. For example:
(§2) Samples of a contaminated calcium carbonate slurry having 78 wt % solids and 60% of particles less than 2 μm in size (measured using a micrometrics sedigraph) comprising various amounts of the biocide glutaraldehyde, and DMEA were prepared. The total viable count (cfu/ml) of each sample was measured after 0, 1 and 7 days by the method described above in the detailed description.
Samples of a contaminated calcium carbonate slurry having 78 wt % solids and 60% of particles less than 2 μm in size (measured using a micrometrics sedigraph) comprising various amounts of DMEA and the biocides benzisothiazolinone (BIT) and methylisothiazolinone (MIT) were prepared. The total viable count (cfu/ml) of each sample was measured after 0, 1 and 7 days by the method described above in the detailed description.
as §2, with “of” for “of the biocide glutaraldehyde, and”

[4] = total 50 mg/kg of chemical added
[5] = total 100 mg/kg of chemical added
[6] = total 150 mg/kg of chemical added
[7] = total 200 mg/kg of chemical added
[8] = total 250 mg/kg of chemical added
[9] = total 300 mg/kg of chemical added
[10] = total 350 mg/kg of chemical added
[11] = total 400 mg/kg of chemical added
[12] = total 450 mg/kg of chemical added
[13] = total 500 mg/kg of chemical added
[14] = total 550 mg/kg of chemical added
[15] = total 600 mg/kg of chemical added
[16] = day 0.5, lowered to pH 8 with CO2

δ pH ([1]; total 50 mg/kg added): 0.27 | pH of sample [1, 4]: 9.28 | δ pH ([1]; total 100 mg/kg added): 0.21 | pH of sample [1, 5]: 9.49 | δ pH ([1]; total 150 mg/kg added): 0.15 | pH of sample [1, 6]: 9.64 | δ pH ([1]; total 200 mg/kg added): 0.14 | pH of sample [1, 7]: 9.78 | δ pH ([1]; total 250 mg/kg added): 0.14 | pH of sample [1, 8]: 9.92 | δ pH ([1]; total 300 mg/kg added): 0.09 | pH of sample [1, 9]: 10.01 | δ pH ([1]; total 350 mg/kg added): 0.07 | pH of sample [1, 10]: 10.08 | δ pH ([1]; total 400 mg/kg added): 0.07 | pH of sample [1, 11]: 10.15 | δ pH ([1]; total 450 mg/kg added): 0.07 | pH of sample [1, 12]: 10.22 | δ pH ([1]; total 500 mg/kg added): 0.05 | pH of sample [1, 13]: 10.27 | δ pH ([1]; total 550 mg/kg added): 0.05 | pH of sample [1, 14]: 10.32 | δ pH ([1]; total 600 mg/kg added): 0.05 | pH of sample [1, 15]: 10.37 | pH of sample ([2]; day 0, before CO2 aspiration): 9.50 | δ pH ([2]; day 0.5): 0.00 | pH of sample [2, 16]: 8.00 | pH of sample ([2]; day 1): 8.16 | δ pH ([2]; day 1): 0.13 | pH of sample ([2]; day 2): 8.26 | δ pH ([2]; day 2): 0.23 | pH of sample ([2]; day 16): 8.46 | δ pH ([2]; day 16): 0.43 | pH of sample ([2]; day 20): 8.50 | δ pH ([2]; day 20): 0.47 | pH of sample ([2]; day 23): 8.52 | δ pH ([2]; day 23): 0.49 | pH of sample ([2]; day 24): 8.58 | δ pH ([2]; day 24): 0.55 | pH of sample ([2]; day 27): 8.61 | δ pH ([2]; day 27): 0.58 | pH of sample ([2]; day 28): 8.66 | δ pH ([2]; day 28): 0.66
Compound: CC(C)(N)CO [AMP, 2-amino-2-methyl-1-propanol, reference compound]

Compound: CN(C)CCO [DMEA, Dimethylethanolamine]
level of microbes compared with samples comprising no DMEA ([3]; after 0 days): slightly reduced the level of microbes | level of microbes compared with samples comprising no DMEA ([3]; after 1 day and 7 days): further reduced the level of microbes | Total Viable Count (cfu/ml) of sample as 10^x, x ([3]; 400 ppm DMEA in sample, 0 days after preparation): 5 cfu/ml as 10^x | Total Viable Count (cfu/ml) of sample as 10^x, x ([3]; 400 ppm DMEA in sample, 1 day after preparation): 4 cfu/ml as 10^x | Total Viable Count (cfu/ml) of sample as 10^x, x ([3]; 400 ppm DMEA in sample, 7 days after preparation): 0.1 cfu/ml as 10^x | Total Viable Count (cfu/ml) of sample as 10^x, x ([3]; 500 ppm DMEA in sample, 0 days after preparation): 5 cfu/ml as 10^x | Total Viable Count (cfu/ml) of sample as 10^x, x ([3]; 500 ppm DMEA in sample, 1 day after preparation): 4 cfu/ml as 10^x | Total Viable Count (cfu/ml) of sample as 10^x, x ([3]; 500 ppm DMEA in sample, 7 days after preparation): 0.1 cfu/ml as 10^x | Total Viable Count (cfu/ml) of sample as 10^x, x ([3]; 600 ppm DMEA in sample, 0 days after preparation): 5 cfu/ml as 10^x | Total Viable Count (cfu/ml) of sample as 10^x, x ([3]; 600 ppm DMEA in sample, 1 day after preparation): 4 cfu/ml as 10^x | Total Viable Count (cfu/ml) of sample as 10^x, x ([3]; 600 ppm DMEA in sample, 7 days after preparation): 0.1 cfu/ml as 10^x | reducing total viable count compared with glutaraldehyde alone ([3]; DMEA in combination with 50, 100 or 400 ppm glutaraldehyde, after 1 and 7 days): at least as effective | total viable count compared with glutaraldehyde alone ([3]; DMEA in combination with 50 ppm glutaraldehyde, after 0 days): lower total viable count | total viable count compared with BIT/MIT but no DMEA ([3]; DMEA in combination with 81, 162 or 650 ppm BIT/MIT, after 1 day and 7 days): lower total viable count | δ pH ([1]; total 50 mg/kg added): 0.25 | pH of sample [1, 4]: 9.19 | δ pH ([1]; total 100 mg/kg added): 0.17 | pH of sample [1, 5]: 9.36 | δ pH ([1]; total 150 mg/kg added): 0.13 | pH of sample [1, 6]: 9.49 | δ pH ([1]; total 200 mg/kg added): 0.11 | pH of sample [1, 7]: 9.60 | δ pH ([1]; total 250 mg/kg added): 0.07 | pH of sample [1, 8]: 9.67 | δ pH ([1]; total 300 mg/kg added): 0.07 | pH of sample [1, 9]: 9.74 | δ pH ([1]; total 350 mg/kg added): 0.06 | pH of sample [1, 10]: 9.80 | δ pH ([1]; total 400 mg/kg added): 0.05 | pH of sample [1, 11]: 9.85 | δ pH ([1]; total 450 mg/kg added): 0.05 | pH of sample [1, 12]: 9.90 | δ pH ([1]; total 500 mg/kg added): 0.05 | pH of sample [1, 13]: 9.95 | δ pH ([1]; total 550 mg/kg added): 0.04 | pH of sample [1, 14]: 9.99 | δ pH ([1]; total 600 mg/kg added): 0.02 | pH of sample [1, 15]: 10.01 | pH of sample ([2]; day 0, before CO2 aspiration): 10.00 | δ pH ([2]; day 0.5): 0.00 | pH of sample [2, 16]: 8.00 | pH of sample ([2]; day 1): 8.22 | δ pH ([2]; day 1): 0.22 | pH of sample ([2]; day 2): 8.28 | δ pH ([2]; day 2): 0.28 | pH of sample ([2]; day 3): 8.35 | δ pH ([2]; day 3): 0.35 | pH of sample ([2]; day 4): 8.43 | δ pH ([2]; day 4): 0.43 | pH of sample ([2]; day 9): 8.52 | δ pH ([2]; day 9): 0.52 | pH of sample ([2]; day 11): 8.55 | δ pH ([2]; day 11): 0.55 | pH of sample ([2]; day 16): 8.58 | δ pH ([2]; day 16): 0.58 | pH of sample ([2]; day 20): 8.60 | δ pH ([2]; day 20): 0.60 | pH of sample ([2]; day 23): 8.64 | δ pH ([2]; day 23): 0.64 | pH of sample ([2]; day 24): 8.65 | δ pH ([2]; day 24): 0.65 | pH of sample ([2]; day 27): 8.70 | δ pH ([2]; day 27): 0.70 | pH of sample ([2]; day 28): 8.79 | δ pH ([2]; day 28): 0.79 | pH recovery compared with sample comprising AMP and control sample ([2]; recovery from pH 8): increased more rapidly and to a higher level | pH the sample increased to ([2]; recovery from pH 8, end of monitoring, control sample 8.3): 8.8
